For one assay, the species on record is Rattus norvegicus. Kind of assay: Selectivity for rat DAT over rat SERT.
Assay [1] concerns the target Sodium-dependent dopamine transporter (Rattus norvegicus, UniProt P23977). Nature of the assay: Displacement of [125I]RTI55 from DAT in rat brain synaptosomes. The assay is classed as subcellular. A general note: In a radioligand displacement assay an active substance lowers the binding of a labelled ligand.
The target in assay [2] is Sodium-dependent serotonin transporter (Rattus norvegicus, UniProt P31652). Kind of assay: Displacement of [125I]RTI55 from SERT in rat brain synaptosomes. The assay is classed as subcellular.
Sequence of Sodium-dependent serotonin transporter (P31652 whole entry): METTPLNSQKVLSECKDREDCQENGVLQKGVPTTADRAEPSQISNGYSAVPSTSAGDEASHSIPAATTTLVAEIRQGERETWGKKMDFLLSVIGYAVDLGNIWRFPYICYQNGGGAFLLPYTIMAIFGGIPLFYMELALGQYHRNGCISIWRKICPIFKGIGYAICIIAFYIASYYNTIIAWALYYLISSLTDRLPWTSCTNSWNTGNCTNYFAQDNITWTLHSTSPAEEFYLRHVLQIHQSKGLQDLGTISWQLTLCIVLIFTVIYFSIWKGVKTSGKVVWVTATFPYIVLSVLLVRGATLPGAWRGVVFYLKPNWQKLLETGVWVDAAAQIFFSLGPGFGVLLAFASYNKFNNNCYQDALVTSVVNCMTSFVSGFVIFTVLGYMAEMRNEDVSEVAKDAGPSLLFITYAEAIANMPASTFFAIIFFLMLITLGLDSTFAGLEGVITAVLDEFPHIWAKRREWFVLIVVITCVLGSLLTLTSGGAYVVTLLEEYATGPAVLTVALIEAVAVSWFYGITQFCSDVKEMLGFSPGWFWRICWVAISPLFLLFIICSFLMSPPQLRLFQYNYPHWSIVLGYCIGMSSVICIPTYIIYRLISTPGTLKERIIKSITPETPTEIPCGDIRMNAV

Sequence of Sodium-dependent dopamine transporter (P23977 whole entry): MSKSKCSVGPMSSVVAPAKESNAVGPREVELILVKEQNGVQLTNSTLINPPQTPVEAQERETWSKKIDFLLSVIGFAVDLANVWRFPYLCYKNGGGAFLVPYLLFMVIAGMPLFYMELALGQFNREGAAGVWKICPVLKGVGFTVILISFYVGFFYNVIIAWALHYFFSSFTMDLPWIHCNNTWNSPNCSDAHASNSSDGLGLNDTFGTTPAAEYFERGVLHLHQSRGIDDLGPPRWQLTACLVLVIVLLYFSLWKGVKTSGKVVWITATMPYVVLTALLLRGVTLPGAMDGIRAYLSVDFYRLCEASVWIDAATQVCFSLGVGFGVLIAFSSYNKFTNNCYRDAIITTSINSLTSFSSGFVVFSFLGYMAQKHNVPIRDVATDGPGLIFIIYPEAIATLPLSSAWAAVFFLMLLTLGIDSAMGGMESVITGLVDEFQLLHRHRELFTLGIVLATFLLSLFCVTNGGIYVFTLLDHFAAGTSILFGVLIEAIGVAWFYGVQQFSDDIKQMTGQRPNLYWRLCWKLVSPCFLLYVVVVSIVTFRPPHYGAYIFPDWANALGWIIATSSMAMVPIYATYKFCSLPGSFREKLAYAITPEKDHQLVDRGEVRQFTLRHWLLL

On to `COc1ccccc1CN1CCC(CCOC(c2ccc(F)cc2)c2ccc(F)cc2)CC1`, for which the Ratio pKi in the assay filed under Rattus norvegicus turned out to be 0.6. On the same count and under the same terms, under `COc1ccc(CN2CCC(CCOC(c3ccc(F)cc3)c3ccc(F)cc3)CC2)cc1` stands 1.53. The term Ki denotes the dissociation constant of the complex between target and ligand, obtained from inhibition or displacement. Low values mean higher affinity, high ones lower affinity. Regarding `Fc1ccc(C(OCCN2CCN(CC#Cc3ccccc3)CC2)c2ccc(F)cc2)cc1`, the Ratio pKi in the assay filed under Rattus norvegicus came out at 1.12. Further, the values for the Ki in assay [1] and in assay [2] were 20 nM and 266 nM, respectively. On to `Fc1ccc(C(OCCN2CCN(Cc3cc4ccccc4s3)CC2)c2ccc(F)cc2)cc1`, for which the Ratio pKi in the assay listed under Rattus norvegicus worked out at 2.08. Besides, the Ki in assay [1] was determined as 4.1 nM; in assay [2], 495 nM. With `Fc1ccc(C(OCCN2CCN(Cc3cc4ccccc4o3)CC2)c2ccc(F)cc2)cc1`, the Ratio pKi in the assay filed under Rattus norvegicus is 1.65. Besides, the Ki came out at 6.4 nM in assay [1] and 286 nM in assay [2]. With `O=C1CCCCC1CN1CCN(CCOC(c2ccc(F)cc2)c2ccc(F)cc2)CC1` (racemic), in the assay filed under Rattus norvegicus, the Ratio pKi is 1.29. The Ki in assay [1] came to 87 nM; in assay [2] it was 1690 nM. As to `Fc1ccc(C(OCCN2CCN(CC3=Cc4ccccc4CC3)CC2)c2ccc(F)cc2)cc1`, the Ratio pKi in the assay listed under Rattus norvegicus is 1.61. `O[C@H]1c2ccccc2CC[C@@H]1CN1CCN(CCOC(c2ccc(F)cc2)c2ccc(F)cc2)CC1`: the Ratio pKi in the assay listed under Rattus norvegicus was determined as 0.25. In addition, the Ki in assay [1] is 18 nM; in assay [2], 32 nM. The corresponding values for `Fc1ccc(C(OCCC2CCN(CC#Cc3ccccc3)CC2)c2ccc(F)cc2)cc1` are 1.49, 5.3 nM and 164 nM.

On to `Fc1ccc(C(OCCN2CCN(Cc3cnc4ccccc4c3)CC2)c2ccc(F)cc2)cc1`, for which the Ratio pKi in the assay filed under Rattus norvegicus is 1.48. Further, the Ki in assay [1] is 16.1 nM; in assay [2], 485 nM.

On to `Fc1ccc(C(OCCC2CCN(Cc3ccc(Br)cc3)CC2)c2ccc(F)cc2)cc1`, for which, in the assay filed under Rattus norvegicus, the Ratio pKi came out at 2.26. On the same count and under the same terms, under `Fc1ccc(C(OCCC2CCN(Cc3cccc4ccccc34)CC2)c2ccc(F)cc2)cc1` stands 1.36; under `Fc1ccc(CN2CCC(CCOC(c3ccc(F)cc3)c3ccc(F)cc3)CC2)cc1`, 2.03. With `Fc1ccc(C(OCCN2CCN(Cc3cc4ccccc4[nH]3)CC2)c2ccc(F)cc2)cc1`, the Ratio pKi in the assay listed under Rattus norvegicus is 2.23. Besides, the Ki in assay [1] stood at 0.7 nM; in assay [2] it was 119 nM.

Consider `N#Cc1ccc(CN2CCC(CCOC(c3ccc(F)cc3)c3ccc(F)cc3)CC2)cc1`, for which the Ratio pKi in the assay filed under Rattus norvegicus was found to be 2.7. Regarding `Fc1ccc(C(OCCC2CCN(C[C@@H]3C[C@H]3c3ccccc3)CC2)c2ccc(F)cc2)cc1`, the Ratio pKi in the assay listed under Rattus norvegicus is 1.44. The Ki in assay [1] was found to be 0.8 nM; in assay [2], 22 nM. The corresponding values for `Fc1ccc(C(OCCC2CCN(C[C@@H]3Cc4ccccc4CN3)CC2)c2ccc(F)cc2)cc1` are 1, 4.77 nM and 48.1 nM. In the case of `Fc1ccc(C(OCCC2CCN(C[C@H]3C[C@@H]3c3ccccc3)CC2)c2ccc(F)cc2)cc1`, the Ratio pKi in the assay filed under Rattus norvegicus was found to be 2.02. The Ki in assay [1] was found to be 1.3 nM; in assay [2] it was 136 nM. Turning to `Fc1ccc(C(OCCC2CCN(Cc3ccc(I)cc3)CC2)c2ccc(F)cc2)cc1`, in the assay listed under Rattus norvegicus, the Ratio pKi came to 1.99. Take `Fc1ccc(C(OCCC2CCN(Cc3ccc4ccccc4c3)CC2)c2ccc(F)cc2)cc1`: the Ratio pKi in the assay listed under Rattus norvegicus is 2.51. In addition, in assay [1], the affinity corresponds to a Ki of 0.71 nM.

Regarding `O=C1c2ccccc2CCC1CN1CCN(CCOC(c2ccc(F)cc2)c2ccc(F)cc2)CC1` (racemic), the Ratio pKi in the assay filed under Rattus norvegicus was found to be 0.29. In the case of `O=[N+]([O-])c1ccc(CN2CCC(CCOC(c3ccc(F)cc3)c3ccc(F)cc3)CC2)cc1`, in the assay filed under Rattus norvegicus, the Ratio pKi stood at 2.51.

For `Fc1ccc(C(OCCC2CCN(Cc3ccc(Cl)cc3)CC2)c2ccc(F)cc2)cc1`, the Ratio pKi in the assay filed under Rattus norvegicus came to 2.3.

As for `Fc1ccc(C(OCCN2CCN(Cc3ccc4ccccc4c3)CC2)c2ccc(F)cc2)cc1`, in the assay filed under Rattus norvegicus, the Ratio pKi worked out at 1.59. For the same compound, the results for the inhibition constant Ki in assay [1] and in assay [2] were 8 nM and 312 nM, respectively.

`Fc1ccc(C(OCCC2CCN(Cc3cc4ccccc4o3)CC2)c2ccc(F)cc2)cc1`: the Ratio pKi in the assay filed under Rattus norvegicus turned out to be 1.93. Also, the Ki was determined as 1.01 nM in assay [1] and 85 nM in assay [2].

As to `C=CCN1CCN(CCOC(c2ccc(F)cc2)c2ccc(F)cc2)CC1`, the Ratio pKi in the assay listed under Rattus norvegicus came out at 1.41. Same read-out and setting: under `O=C1CCCCCC1CN1CCN(CCOC(c2ccc(F)cc2)c2ccc(F)cc2)CC1` (racemic) stands 1.03. Consider `Fc1ccc(C(OCCN2CCN(Cc3ccc4ncccc4c3)CC2)c2ccc(F)cc2)cc1`, for which the Ratio pKi in the assay listed under Rattus norvegicus is 0.95. For the same compound, the inhibition constant (Ki) in assay [1] worked out at 61.8 nM; in assay [2] it was 551 nM. On to `Fc1ccc(C(OCCC2CCN(Cc3ccccc3)CC2)c2ccc(F)cc2)cc1`, for which the Ratio pKi in the assay listed under Rattus norvegicus worked out at 1.24. In the case of `Fc1ccc(C(OCCC2CCN(Cc3cc4ccccc4s3)CC2)c2ccc(F)cc2)cc1`, in the assay listed under Rattus norvegicus, the Ratio pKi was determined as 2.18. In addition, the results for the inhibition constant Ki in assay [1] and in assay [2] were 1.61 nM and 246 nM, respectively. Consider `Fc1ccc(C(OCCC2CCN(C[C@H]3Cc4ccccc4CN3)CC2)c2ccc(F)cc2)cc1`, for which the Ratio pKi in the assay filed under Rattus norvegicus turned out to be 0.21. The figures for the Ki in assay [1] and in assay [2] were 9.32 nM and 15.2 nM, respectively. As for `COc1ccc2c(c1)CCC(CN1CCN(CCOC(c3ccc(F)cc3)c3ccc(F)cc3)CC1)C2=O` (racemic), the Ratio pKi in the assay filed under Rattus norvegicus was -0.87. Same read-out and setting: under `O[C@H]1c2ccccc2CC[C@H]1CN1CCN(CCOC(c2ccc(F)cc2)c2ccc(F)cc2)CC1` stands 1.36; under `CCN1CCN(CCOC(c2ccc(F)cc2)c2ccc(F)cc2)CC1`, 1.79.

Turning to `CCCN1CCN(CCOC(c2ccc(F)cc2)c2ccc(F)cc2)CC1`, the Ratio pKi in the assay filed under Rattus norvegicus was found to be 1.35. Still for that read-out and setting: under `Cc1ccc(CN2CCC(CCOC(c3ccc(F)cc3)c3ccc(F)cc3)CC2)cc1` stands 1.62. Consider `Fc1ccc(C(OCCN2CCN(Cc3cccc4ccccc34)CC2)c2ccc(F)cc2)cc1`, for which, in the assay filed under Rattus norvegicus, the Ratio pKi was 0.89. Also, the figures for the Ki in assay [1] and in assay [2] were 31 nM and 243 nM, respectively. Take `Fc1ccc(C(OCCC2CCN(Cc3ccc(C(F)(F)F)cc3)CC2)c2ccc(F)cc2)cc1`: the Ratio pKi in the assay filed under Rattus norvegicus is 2.6. In the case of `COc1ccc2c(c1)CC[C@@H](CN1CCN(CCOC(c3ccc(F)cc3)c3ccc(F)cc3)CC1)[C@H]2O`, in the assay listed under Rattus norvegicus, the Ratio pKi is -0.67. The compound also had a Ki in assay [1] of 14 nM. The corresponding values for `COc1ccc2c(c1)CCC(CN1CCN(CCOC(c3ccc(F)cc3)c3ccc(F)cc3)CC1)=C2` are 0.03 and 53 nM. Regarding `O=C1CCCC1CN1CCN(CCOC(c2ccc(F)cc2)c2ccc(F)cc2)CC1` (racemic), in the assay filed under Rattus norvegicus, the Ratio pKi is 1.06.

Regarding `Fc1ccc(C(OCCC2CCN(Cc3cc4ccccc4[nH]3)CC2)c2ccc(F)cc2)cc1`, the Ratio pKi in the assay filed under Rattus norvegicus was determined as 2.08. The Ki was determined as 0.73 nM in assay [1] and 88 nM in assay [2]. With `COc1cccc(CN2CCC(CCOC(c3ccc(F)cc3)c3ccc(F)cc3)CC2)c1`, in the assay filed under Rattus norvegicus, the Ratio pKi came to 1.08. In the case of `Fc1ccc(C(OCCN2CCN(CCCCl)CC2)c2ccc(F)cc2)cc1`, in the assay filed under Rattus norvegicus, the Ratio pKi was determined as 0.91. In addition, the Ki in assay [1] stood at 42 nM; in assay [2], 338 nM. In the same order, the values of `Fc1ccc(C(OCCN2CCN(CC34CC5CC(CC(C5)C3)C4)CC2)c2ccc(F)cc2)cc1` are 0.78, 100 nM and 598 nM. In the same order, the values of `Fc1ccc(C(OCCN2CCN(Cc3ccc4ccccc4n3)CC2)c2ccc(F)cc2)cc1` are -0.04, 56 nM and 51 nM.

The record behind these values is ChEMBL document CHEMBL1140599, “DAT/SERT selectivity of flexible GBR 12909 analogs modeled using 3D-QSAR methods” (Bioorg Med Chem, 2007).
